Series [1] in a line: Solubility test in water (supersaturated solutions). It counts as physicochemical. The conditions noted are these: 22 mg added to 0.5 ml of water. As for the experimental part: Supersaturated solutions of naringenin and NRG:ARG 1:3 NSF were prepared from 0.5 ml of water.
The conditions of series [2]: Wen et al., Molecules 2010; cited from earlier work.

In the case of `O=C1C[C@@H](c2ccc(O)cc2)Oc2cc(O)cc(O)c21` [naringenin, Naringenin], in series [1], the dissolution in water entry is given as “practically it did not dissolve at all”. Also, the reported solubility in series [2] was 4.38 µg/mL.

(Values after patent publication US20240285534A1, “CO-AMORPHOUS SOLID FORMS OF FLAVONOIDS” (ALPARIS, S.A. de C.V., priority 2022, published 2024).)
